Reference: US10051861B2, “N-arylamidine-substituted trifluoroethyl sulfide derivatives as acaricides and insecticides” (BAYER CROPSCIENCE AG, priority 2011, dated 2018)

test system: greenhouse red spider mite (Tetranychus urticae); test: Tetranychus urticae spray test, OP-resistant (TETRUR), bean leaf disks; assay type: in vivo; details: Tetranychus urticae, foliar, 144 h, application rate 500 g/ha, after 6 days; read-out: efficacy (spider mites killed)
Protocol: After 6 days, the effect in % is determined.

SMILES | pest or weed control at 500 g/ha [%]
Cc1cc(F)c(/N=C(\N)C2(C#N)CC2)cc1[S+]([O-])CC(F)(F)F (centres unmarked) [Ib-72] | 100
Cc1cc(F)c(/N=C(/c2ccc(Cl)cc2)N(C)C)cc1[S+]([O-])CC(F)(F)F (centres unmarked) [Ib-73] | 90
Cc1cc(F)c(/N=C(/NCc2ccccc2)C(F)(F)F)cc1[S+]([O-])CC(F)(F)F (centres unmarked) [Ib-74] | 90
Cc1cc(F)c(/N=C(\c2ccc(C(F)(F)F)nc2)N(C)C)cc1[S+]([O-])CC(F)(F)F (centres unmarked) [Ib-75] | 100
CN/C(=N\c1cc([S+]([O-])CC(F)(F)F)c(C)cc1F)c1cccc(Cl)c1 (centres unmarked) [Ib-76] | 100
Cc1cc(C)c([S+]([O-])CC(F)(F)F)cc1/N=C(\N)C1(Cl)CC1 (centres unmarked) [Ib-79] | 100
N/C(=N\c1cc([S+]([O-])CC(F)(F)F)c(Cl)cc1Cl)C(F)F (centres unmarked) [Ib-80] | 100
Cc1cc(F)c(/N=C(\c2cccs2)N(C)C)cc1[S+]([O-])CC(F)(F)F (centres unmarked) [Ib-81] | 100
Cc1cc(F)c(/N=C(\c2cccn2C)N(C)C)cc1[S+]([O-])CC(F)(F)F (centres unmarked) [Ib-82] | 100
CCN/C(=N\c1cc([S+]([O-])CC(F)(F)F)c(C)cc1F)c1cccnc1 (centres unmarked) [Ib-84] | 100
Cc1cc(F)c(/N=C(\c2ccccc2F)N(C)C)cc1[S+]([O-])CC(F)(F)F (centres unmarked) [Ib-87] | 100
Cc1cc(F)c(/N=C(\NC2CC2)c2ccc(Cl)nc2)cc1[S+]([O-])CC(F)(F)F (centres unmarked) [Ib-88] | 100
CN/C(=N\c1cc([S+]([O-])CC(F)(F)F)c(Cl)cc1C)C(F)(F)F (centres unmarked) [Ib-90] | 100
Cc1cc(F)c(/N=C(/NC2CS(=O)(=O)C2)C(F)(F)F)cc1[S+]([O-])CC(F)(F)F (centres unmarked) [Ib-91] | 90
CN/C(=N/c1cc([S+]([O-])CC(F)(F)F)c(C)cc1F)c1ccc(C(F)(F)F)nc1 (centres unmarked) [Ib-92] | 100
Cc1cc(C)c([S+]([O-])CC(F)(F)F)cc1/N=C(\N)c1ccc(Cl)nc1 (centres unmarked) [Ib-94] | 100
CN/C(=N\c1cc([S+]([O-])CC(F)(F)F)c(Cl)cc1Cl)c1cccnc1 (centres unmarked) [Ib-95] | 100
Cc1cc(F)c(/N=C(/N2CCCC2)C(F)(F)F)cc1[S+]([O-])CC(F)(F)F (centres unmarked) [Ib-96] | 90
CN/C(=N\c1cc([S+]([O-])CC(F)(F)F)c(C)cc1F)c1ccncc1 (centres unmarked) [Ib-97] | 100
Cc1cc(C)c([S+]([O-])CC(F)(F)F)cc1/N=C(/c1cccnc1)N(C)C (centres unmarked) [Ib-98] | 100
Cc1cc(F)c(/N=C(\N)C2CCC2)cc1[S+]([O-])CC(F)(F)F (centres unmarked) [Ib-99] | 100
CN/C(=N\c1cc([S+]([O-])CC(F)(F)F)c(C)cc1C)c1ccc(Cl)cc1 (centres unmarked) [Ib-100] | 100
Cc1cc(C)c([S+]([O-])CC(F)(F)F)cc1/N=C(\N)c1ccccn1 (centres unmarked) [Ib-102] | 90
CN/C(=N\c1cc([S+]([O-])CC(F)(F)F)c(Cl)cc1C)c1cccnc1 (centres unmarked) [Ib-103] | 90
CN/C(=N\c1cc([S+]([O-])CC(F)(F)F)c(C)cc1F)c1cnc(Cl)c(Cl)c1 (centres unmarked) [Ib-104] | 90

SMILES | pest or weed control at 500 g/ha [%]
CN/C(=N\c1cc([S+]([O-])CC(F)(F)F)c(Cl)cc1Cl)c1ccccn1 (centres unmarked) [Ib-109] | 100
Cc1cc(C)c([S+]([O-])CC(F)(F)F)cc1/N=C1\CCCN1C(C)C(F)(F)F (centres unmarked) [Ib-112] | 100
CN/C(=N/c1cc([S+]([O-])CC(F)(F)F)c(C)cc1F)c1cccc(C(F)(F)F)c1 (centres unmarked) [Ib-113] | 100
Cc1cc(F)c(/N=C(\c2cccc(C(F)(F)F)c2)N(C)C)cc1[S+]([O-])CC(F)(F)F (centres unmarked) [Ib-114] | 100
Cc1cc(F)c(/N=C2\SCC(=O)N2CC(F)F)cc1[S+]([O-])CC(F)(F)F (centres unmarked) [Ib-116] | 90
O=C1CS/C(=N\c2cc([S+]([O-])CC(F)(F)F)ccc2F)N1CC(F)(F)F (centres unmarked) [Ib-117] | 100
Cc1cc(F)c(/N=C(/N)c2ccc(Cl)cc2)cc1[S+]([O-])CC(F)(F)F (centres unmarked) [Ib-118] | 100
CN(C)/C(=N\c1cc([S+]([O-])CC(F)(F)F)c(Cl)cc1Cl)c1ccc(Cl)nc1 (centres unmarked) [Ib-119] | 100
O=C1CS/C(=N\c2cc([S+]([O-])CC(F)(F)F)c(Cl)cc2F)N1CC(F)(F)F (centres unmarked) [Ib-120] | 100
O=C1CS/C(=N\c2cc([S+]([O-])CC(F)(F)F)ccc2Cl)N1CC(F)(F)F (centres unmarked) [Ib-121] | 100
O=C1CS/C(=N\c2cc([S+]([O-])CC(F)(F)F)c(Cl)cc2Cl)N1C1CC1 (centres unmarked) [Ib-122] | 90
Cc1cc(F)c(/N=C(\c2ccc(C(F)(F)F)cc2)N(C)C)cc1[S+]([O-])CC(F)(F)F (centres unmarked) [Ib-124] | 90
CN/C(=N/c1ccc(C)c([S+]([O-])CC(F)(F)F)c1)C(F)(F)F (centres unmarked) [Ib-125] | 100
Cc1cc(C)c([S+]([O-])CC(F)(F)F)cc1/N=C(/c1ccccc1)N(C)C (centres unmarked) [Ib-126] | 100
CN(C)/C(=N\c1cc([S+]([O-])CC(F)(F)F)c(Cl)cc1Cl)c1ccccc1 (centres unmarked) [Ib-127] | 100
Cc1cc(F)c(/N=C/N(C)C)cc1[S+]([O-])CC(F)(F)F (centres unmarked) [Ib-128] | 90
[O-][S+](CC(F)(F)F)c1cc(/N=C(\NCC(F)F)C2CC2)c(Cl)cc1Cl (centres unmarked) [Ib-129] | 100
[O-][S+](CC(F)(F)F)c1cc(/N=C(\NCCc2ncc(C(F)(F)F)cc2Cl)C2CC2)c(Cl)cc1Cl (centres unmarked) [Ib-130] | 100
Cc1cc(F)c(/N=C(\N)C2CCCCC2)cc1[S+]([O-])CC(F)(F)F (centres unmarked) [Ib-131] | 100
Cc1cc(F)c(/N=C(\NCC(F)F)C2CC2)cc1[S+]([O-])CC(F)(F)F (centres unmarked) [Ib-132] | 100
Cc1cc(C)c([S+]([O-])CC(F)(F)F)cc1/N=C(/c1ccc(Cl)nc1)N(C)C (centres unmarked) [Ib-133] | 90
Cc1cc(F)c(/N=C2\SCC(=O)N2C)cc1[S+]([O-])CC(F)(F)F (centres unmarked) [Ib-134] | 90
Cc1cc(F)c(/N=C2\SCC(=O)N2C2CC2)cc1[S+]([O-])CC(F)(F)F (centres unmarked) [Ib-135] | 100
Cc1cc(C)c([S+]([O-])CC(F)(F)F)cc1/N=C(\NC1CC1)c1ccc(Cl)nc1 (centres unmarked) [Ib-136] | 90
Cc1cc(Cl)c([S+]([O-])CC(F)(F)F)cc1/N=C(\N)C1(Cl)CC1 (centres unmarked) [Ib-138] | 100

SMILES | pest or weed control at 500 g/ha [%]
Cc1ccc(/N=C2\SCC(=O)N2CC(F)(F)F)cc1[S+]([O-])CC(F)(F)F (centres unmarked) [Ib-139] | 100
CN/C(=N\c1cc([S+]([O-])CC(F)(F)F)c(Cl)cc1Cl)c1cccc(Cl)c1 (centres unmarked) [Ib-140] | 100
Cc1cc(C)c([S+]([O-])CC(F)(F)F)cc1/N=C1\SCC(=O)N1CC(F)(F)F (centres unmarked) [Ib-141] | 100
Cc1cc(C)c([S+]([O-])CC(F)(F)F)cc1/N=C(\NCC(F)(F)F)C1CCC1 (centres unmarked) [Ib-142] | 90
CN/C(=N\c1cc([S+]([O-])CC(F)(F)F)c(Cl)cc1Cl)c1ccc(C(F)(F)F)nc1 (centres unmarked) [Ib-144] | 90
CN/C(=N/c1cc([S+]([O-])CC(F)(F)F)c(C)cc1F)c1ccc(C(F)(F)F)cc1 (centres unmarked) [Ib-145] | 90
O=C1CS/C(=N\c2ccc(Cl)c([S+]([O-])CC(F)(F)F)c2)N1CC(F)(F)F (centres unmarked) [Ib-146] | 90
Cc1cc(C)c([S+]([O-])CC(F)(F)F)cc1/N=C(/c1ccccc1Cl)N(C)C (centres unmarked) [Ib-147] | 90
CN/C(=N/c1cc([S+]([O-])CC(F)(F)F)c(C)cc1F)c1ccccc1C(F)(F)F (centres unmarked) [Ib-148] | 100
CN/C(=N\c1cc([S+]([O-])CC(F)(F)F)c(Cl)cc1Cl)c1ccc(Cl)cc1 (centres unmarked) [Ib-149] | 90
CCN/C(=N\c1cc([S+]([O-])CC(F)(F)F)c(Cl)cc1Cl)c1cccnc1 (centres unmarked) [Ib-150] | 90
[O-][S+](CC(F)(F)F)c1cc(/N=C(\NC2CC2)c2ccc(Cl)nc2)c(Cl)cc1Cl (centres unmarked) [Ib-151] | 100
CN/C(=N\c1cc([S+]([O-])CC(F)(F)F)c(Cl)cc1Cl)c1ccncc1 (centres unmarked) [Ib-152] | 90
Cc1cc(Cl)c([S+]([O-])CC(F)(F)F)cc1/N=C(\N)c1cnccn1 (centres unmarked) [Ib-153] | 90
Cc1cc(C)c([S+]([O-])CC(F)(F)F)cc1/N=C(/c1ccc(Cl)cc1)N(C)C (centres unmarked) [Ib-154] | 90
Cc1cc(C)c([S+]([O-])CC(F)(F)F)cc1/N=C(\NCC(F)(F)F)C1CCCC1 (centres unmarked) [Ib-155] | 90
Cc1cc(C)c([S+]([O-])CC(F)(F)F)cc1/N=C1\SCC(=O)N1C1CC1 (centres unmarked) [Ib-156] | 90
Cc1cc(C)c([S+]([O-])CC(F)(F)F)cc1/N=C(/c1ccccc1Cl)N1CCOCC1 (centres unmarked) [Ib-157] | 90
Cc1cc(F)c(/N=c2\sc(C)c(C)n2CC(F)(F)F)cc1[S+]([O-])CC(F)(F)F (centres unmarked) [Ib-158] | 90
Cc1cc(C)c([S+]([O-])CC(F)(F)F)cc1/N=C(\NC(C)C(F)(F)F)C1CC1 (centres unmarked) [Ib-160] | 100
Cc1cc(F)c(/N=C(\NCC(F)(F)F)C2CCC2)cc1[S+]([O-])CC(F)(F)F (centres unmarked) [Ib-166] | 90
[O-][S+](CC(F)(F)F)c1cc(/N=C(\NCC(F)(F)F)C2CCC2)c(Cl)cc1Cl (centres unmarked) [Ib-167] | 90
Cc1cc(F)c(/N=C2\CCCN2C(C)C(F)(F)F)cc1[S+]([O-])CC(F)(F)F (centres unmarked) [Ib-169] | 100
Cc1cc(F)c(/N=c2\scc(C3(Cl)CC3)n2CC(F)(F)F)cc1[S+]([O-])CC(F)(F)F (centres unmarked) [Ib-172] | 90
Cc1cc(F)c(/N=c2\snc(C)n2C)cc1[S+]([O-])CC(F)(F)F (centres unmarked) [Ib-174] | 100

same assay, conditions: application rate 500 g/ha, after 6 days

SMILES | efficacy (spider mites killed) [%]
Cc1cc(F)c(/N=C(\c2ccc(C#N)cc2)N(C)C)cc1[S+]([O-])CC(F)(F)F (centres unmarked) [Ib-77] | 90
CN/C(=N\c1cc([S+]([O-])CC(F)(F)F)c(C)cc1F)c1cccnc1 (centres unmarked) [Ib-93] | 100
